{
  "source": "patent US8343916B2",
  "about": "“Use of heat-shock protein 27 for cardiovascular disease prevention and treatment” (Ottawa Heart Institute Research Corporation, priority 2007, dated 2013)",
  "key": {"[1]": {"tested_on": "Human macrophages (U937)", "assay": "HSP27 secretion from human macrophages (Western blot of conditioned media)", "type": "cell-based", "experimental": "(§1) Cell lysates were obtained using a RIPA buffer [1% NP-40, 0.5% sodium deoxycholate, 0.1% SDS, Complete™ inhibitor in PBS]. Cells were washed twice with PBS, lysed in RIPA buffer, collected using a cell scraper, and placed on ice for 45 minutes. Cell debris was collected by centrifugation at 15,000×g for 20 minutes, and the supernatant containing the cellular protein was isolated. Protein was quantified using Bradford reagent (Sigma). For western blotting, 50 μg of whole cell protein was loaded onto a 10% SDS-PAGE gel and separated at 120V using gel electrophoresis. Protein was then transferred to a PVDF membrane (BioRad, Hercules, Calif.) for 2 hours at 60V. Membranes were then subjected to western blotting using the following antibodies: anti-HSP27 (Santa Cruz, 1:200); anti-SR-A (Chemicon, 1:2000); anti-IL-1β (R&D, 1:500); anti-IL-10 (Santa Cruz, 1:200).\nHuman macrophages (U937) were plated in replicates at a density of […] per well and treated with estradiol or acLDL. […] Macrophages were subjected to increasing concentrations of acLDL (1 to 100 μg/mL) for 24 hours."}, "[2]": {"molecular_target": "T1, scavenger receptor A (SR-A) (Mus musculus, UniProt P30204)", "T1 construct": "detection of a ˜50 kDa band corresponding to SR-A in these cells; endogenous in cells; host or cells: J774 mouse macrophages (untransfected); mouse peritoneal macrophages", "T1 sequence (P30204 1-458)": "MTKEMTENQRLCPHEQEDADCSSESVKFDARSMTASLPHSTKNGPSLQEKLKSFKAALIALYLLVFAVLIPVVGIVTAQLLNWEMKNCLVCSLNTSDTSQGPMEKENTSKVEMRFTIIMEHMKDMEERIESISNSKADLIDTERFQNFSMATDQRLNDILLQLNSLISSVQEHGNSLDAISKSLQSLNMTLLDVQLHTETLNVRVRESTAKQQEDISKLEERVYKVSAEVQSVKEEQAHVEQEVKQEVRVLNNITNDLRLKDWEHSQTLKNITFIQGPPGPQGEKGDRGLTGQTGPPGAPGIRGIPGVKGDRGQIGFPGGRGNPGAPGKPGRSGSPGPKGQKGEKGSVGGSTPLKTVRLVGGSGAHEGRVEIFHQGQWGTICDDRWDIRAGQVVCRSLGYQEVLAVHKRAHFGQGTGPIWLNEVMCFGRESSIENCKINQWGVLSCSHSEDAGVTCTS", "assay": "Immunolabeling of recombinant HSP27 binding to macrophage surface and SR-A", "experimental": "J774 cells treated with recombinant HSP27 (5 μg/ml) with or without fucoidan (10 μg/ml) were fixed with BD Cytofix (BD Biosciences, Mississauga, ON) and blocked with 2% bovine serum albumin (BSA) for 2 hours. Antibodies against human HSP27 (Chemicon, 1:200) and scavenger receptor A (Serotec, 1:200) were incubated overnight at 4° C. Visualization of substrates was done using secondary antibodies conjugated to fluoroscein (for HSP27) and Texas Red (for SR-A). Negative controls included incubation with control IgG and secondary antibody alone.\nCells were grown on cover slips, and transfected as described above. Cells were fixed with BD Cytofix as directed by the manufacturer and mounted with Dako Fluorescent mounting media (Dako Cytomation, Mississauga, ON). Coverslips were visualized with an Olympus FluoView FV1000 confocal microscope (Olympus America Inc, Center Valley, Pa.) at 100× magnification, using sequential scanning to reduce any potential non-specific excitation of the different fluorophores.\nCells were also treated with an SR-A specific competitive ligand (fucoidan, 10 ug/ml) before administration of HSP27 (bottom panel). Co-localization is seen as a yellow colour. […] Macrophages from SR-A null mice were harvested and incubated with recombinant HSP27 (5 μg/ml) for 2 hours at 4° C. Immunolabeling was performed as described above."}, "[3]": {"tested_on": "macrophages (acLDL uptake via the scavenger receptor A)", "assay": "Fluorescent acLDL uptake by macrophages", "type": "cell-based, mouse", "experimental": "Cells were treated with Dil-acLDL (5 μg/ml) for 4 hours at 37° C., in the presence of recombinant HSP27 (5 μg/ml) and/or fucoidan (10 μg/ml). Cells were harvested by gentle cell scraping in 100 μl of PBS. Each sample was analyzed for acLDL fluorescence on a BMG PolarStar plate reader (excitation: 510 nm, emission: 570 nm) and normalized to total cell number using the Vi-Cell cell counter (Beckman Coulter, Mississauga, ON).\nFoam cell formation is a hallmark process in the development of atherosclerosis, and prevention of lipid uptake by macrophages may serve to reduce overall lesion development and inflammation. If HSP27 can bind the SR-A in vitro, and there is an atheroprotective effect of HSP27 in vivo, HSP27 may prevent the SR-A from taking up atherogenic lipids such as acLDL and becoming foam cells. In support of this, mouse macrophages were cultured in vitro in the presence of fluorescently labeled acLDL for […], and acLDL uptake was measured using a fluorometer and normalized to total cell number.\nExtracellular HSP27 inhibits uptake of acLDL by macrophages via the scavenger receptor A. Fluorescently labeled acLDL (5 μg/ml) was given to macrophages in the presence (right columns) or absence (left columns) of recombinant HSP27 (5 μg/ml). […] Fluorescent uptake was measured and normalized to total cell number."}, "[4]": {"tested_on": "aortic smooth muscle cells", "assay": "HSP27 secretion from aortic smooth muscle cells (Western blot)", "type": "cell-based, human", "details": "DPN 1 nM, 24 h", "description": "(§2) HSP27 was detected in the extracellular space by Western blot."}, "[5]": {"tested_on": "aortic endothelial cells", "assay": "HSP27 secretion from aortic endothelial cells (Western blot)", "type": "cell-based, human", "details": "DPN 1 nM, 24 h", "description": "as §2"}, "[6]": {"tested_on": "Insulin", "assay": "rHSP27 chaperone activity assay (DTT-induced aggregation of insulin)", "type": "biochemical", "details": "Insulin 40 μM; Insulin:rHSP27 10:1 and 100:1; 43° C.; absorbance at 320 nm", "experimental": "The rHSP27 was produced in E. coli. The rHSP27 so produced is >90% endotoxin free (endotoxin concentration assessed using Limulus Amebocyte Lysate gel-blot Assay: 2-3 EU/mg protein). Based on in vitro chaperone assay experiments, the protein is “functional”. […] The DTT-induced aggregation of insulin was performed in the absence and presence of rHSP27 in PBS solution, pH 7.4, to measure the chaperone activity of rHSP27. Insulin (40 μM) with different concentration of rHSP27 (Insulin: rHSP27=10:1 and 100:1 and no rHSP27) in PBS were incubated for 10 min at 43° C., respectively. Aggregation was monitored by measure the absorbance at 320 nm in Bioteck Synergy Mx spectrophotometer for 30 min at 43° C. after add DTT to a final concentration of 20 mM."}, "[7]": {"tested_on": "ApoE−/− mice", "assay": "Short term (3 week) rHSP27 treatment of ApoE−/− mice on high fat diet", "type": "in vivo, mouse", "experimental": "ApoE^−/− mice were maintained on a high fat diet and randomized to rHSP27 (100 ug) vs. phosphate buffered saline (PBS) twice a day for 3 weeks.\nFIG. 22A depicts the experimental design: ApoE^−/− mice were maintained on a high fat diet and randomized to rHSP27 (100 ug) vs. phosphate buffered saline (PBS) twice a day for 3 weeks. The mice were then euthanized and blood samples were collected. After perfusing with phosphate-buffered saline (PBS) followed by 4% paraformaldehyde (PFA) in PBS via the left ventricle, the heart and aorta were removed and immersed in 4% PFA/PBS at 4° C. overnight. Serum lipoprotein separation was performed by fast-performance liquid chromatography (FPLC) analysis using a Superose 6 column (Pharmacia Biotech Inc., Piscataway, N.J., USA) on an HPLC system model 805 MANOMETRIC MODULE (GILSON). An enzymatic assay kit (Wako Pure Chemical Industries, Ltd, Osaka, Japan) was employed to determine cholesterol level. The content of the aortic atherosclerotic lesions were assessed using quantitative histochemical and immunohistochemical methods. Dark red oil red O staining identifying lipidoid deposits, while Haematoxylin and eosin (H&E) stained denote tissue histopathology.\nHematoxylin and eosin (H&E) stained tissue sections were also labeled for nuclear staining (blue fluorescent Hoechst 33258), apoptosis (green fluorescent TUNEL labeling) and macrophages accumulation (green fluorescent Mac-2)."}, "[8]": {"assay": "rHSP27 pharmacokinetic experiments (subcutaneous injection)", "type": "in vivo, mouse", "details": "100 μg subcutaneously, male and female ApoE−/− mice; similar to female ApoE−/− HSP27o/e mice", "experimental": "These were performed by injecting 100 μg of purified rHSP27 or control BSA (in PBS) subcutaneously into male and female ApoE^−/− mice and then checked serum rHSP27 levels at various times post-injection (n=3-6)."}, "[9]": {"tested_on": "macrophages (IL-1β, IL-10 release)", "assay": "Cytokine release from acLDL-treated macrophages (western blot of conditioned media)", "type": "cell-based, mouse", "details": "recombinant HSP27 5 μg/ml, acLDL 5 ug/ml, 30 minutes and 4 hours", "experimental": "as §1\nFluorescently labeled acLDL (5 ug/ml) was given to macrophages in the presence or absence of recombinant HSP27 (5 μg/ml). Conditioned media was collected after 30 minutes and 4 hours and subjected to western blotting for IL-1β (FIG. 7A) and IL-10 (FIG. 7B). Addition of HSP27 caused a decrease in the acLDL-induced secretion of IL-1β into the extracellular space."}},
  "note": "Entries after “also recorded” stand apart in the source; their conditions may differ.",
  "data": [
    {"molecule": "C[C@]12CC[C@@H]3c4ccc(O)cc4CC[C@H]3[C@@H]1CC[C@@H]2O", "note": "[E2, 17β-estradiol]", "values": [
      {"measurement": "intracellular HSP27 protein levels", "setting": "[1]", "value": "increased slightly"},
      {"measurement": "colocalization of HSP27 with lysosome marker LAMP1", "setting": "[1]; 100 nmol/L E2 overnight", "value": "displayed colocalization of HSP27 (red) and LAMP1"},
      {"measurement": "HSP27 release into the media", "setting": "[1]; E2 for 24 hours, compared to controls", "value": "dose-dependent increase"},
      {"measurement": "time of maximum HSP27 secretion", "setting": "[1]; estrogen-induced release over time", "value": 24, "unit": "h"}
    ]},
    {"molecule": "fucoidan [reference compound]", "values": [
      {"measurement": "HSP27 binding to SR-A in the presence of competitor", "setting": "[2]; fucoidan 10 ug/ml before HSP27", "value": "reduced"},
      {"measurement": "inhibition of acLDL uptake by macrophages", "setting": "[3]; fucoidan 10 ug/ml before acLDL or HSP27", "value": "capable of inhibiting this process"}
    ]},
    {"molecule": "N#CC(Cc1ccc(O)cc1)c1ccc(O)cc1", "note": "(stereo not shown) [DPN]", "values": [
      {"measurement": "HSP27 secretion from smooth muscle cells", "setting": "[4]", "value": "not smooth muscle cells"},
      {"measurement": "HSP27 secretion from endothelial cells", "setting": "[5]", "value": "increase in HSP27 secretion"},
      {"measurement": "HSP27 secretion upon stimulation of ERβ", "setting": "[1]; DPN 1 nM, 4 h or 24 h", "value": "enhanced"}
    ]},
    {"molecule": "rHSP27: recombinant human heat shock protein 27 produced in E. coli, purified, injected subcutaneously", "values": [
      {"measurement": "chaperone activity (in vitro aggregation and refolding assays)", "setting": "[6]", "value": "functional"},
      {"measurement": "body weight", "setting": "[7]; 100 ug BID, 3 weeks", "value": "did not change"},
      {"measurement": "cholesterol levels contained by VLDL and IDL/LDL (FPLC)", "setting": "[7]; 100 ug BID, 3 weeks", "value": "reduces cholesterol levels contained by VLDL and IDL/LDL"},
      {"measurement": "number of WBC (peripheral blood smears)", "setting": "[7]; 100 ug BID, 3 weeks", "value": "did not change"},
      {"measurement": "reduction in abundance of aortic sinus lesion macrophages", "setting": "[7]; 100 ug BID, 3 weeks, Mac-2", "value": "approximately 45%"},
      {"measurement": "reduction in abundance of apoptotic macrophages in aortic sinus lesion", "setting": "[7]; 100 ug BID, 3 weeks, TUNEL", "value": "~80", "unit": "%"},
      {"measurement": "reduction in aortic sinus lesion area", "setting": "[7]; 100 ug BID, 3 weeks, p=0.002", "value": 26, "unit": "%"},
      {"measurement": "reduction in aortic wall (en face) lesion area", "setting": "[7]; 100 ug BID, 3 weeks, p=0.01", "value": 27, "unit": "%"},
      {"measurement": "liver cholesterol content", "setting": "[7]; 100 ug BID, after the 3rd week", "value": "without a rise"},
      {"measurement": "serum total cholesterol levels lower by", "setting": "[7]; 100 ug BID, after the 3rd week, vs PBS", "value": 41, "unit": "%"},
      {"measurement": "adverse events when injected in mice", "setting": "[7]; mouse, in vivo", "value": "did not cause adverse events"},
      {"measurement": "atherogenesis in ApoE−/− mice", "setting": "[7]; mouse, in vivo", "value": "efficacious in reducing atherogenesis"},
      {"measurement": "serum rHSP27 level with twice daily injection schedule", "setting": "[8]", "value": "effective to maintain a serum level of rHSP27"}
    ]},
    {"molecule": "recombinant HSP27: Recombinant HSP27 was purchased from Stressgen; heat shock protein 27 added extracellularly to macrophages", "values": [
      {"measurement": "HSP27 binding to the cell surface of macrophages from SR-A null mice", "setting": "[2]; 5 μg/ml, 2 hours at 4° C.", "value": "completely abolished"},
      {"measurement": "binding to surface of macrophages and co-localization with SR-A", "setting": "[2]; 5 μg/ml, 2 hours at 4° C., confocal microscopy", "value": "capable of binding the surface of macrophages, and co-localizes with SR-A"},
      {"measurement": "reduction in acLDL uptake by macrophages", "setting": "[3]; recombinant HSP27 5 μg/ml, fluorescently labeled acLDL 5 μg/ml, normalized to total cell number", "value": 41, "unit": "%"},
      {"measurement": "acLDL-induced secretion of IL-1β", "setting": "[9]", "value": "decrease"},
      {"measurement": "release of IL-10", "setting": "[9]", "value": "increased"},
      {"measurement": "acLDL-induced secretion of IL-1β", "setting": "[9]; listed as HSP27", "value": "considerable decrease; also recorded: reduced"}
    ]}
  ]
}
